Patent publication US20060252706A1, “Composition for slimming” (priority 2003, published 2006)

Columns and labels:
[1] = tested on: skin of a New Zealand white rabbit; test: Skin irritation (Draize Primary Irritation Index)
Experimental: Skin irritations caused by theanine, caffeine, genistein, L-carnitine and catechin were measured observing edema and erythema on the skin of a New Zealand white rabbit.
Vehicle, 10% of theanine, caffeine, genistein, L-carnitine, catechin or mixture thereof were applied on the skin of a New Zealand white rabbit, twice a day for 4 days, total 8 times. After application, total skin irritation index was calculated by summing up the scores of erythema and edema. The skin irritation index was calculated according to Draize's skin Primary Irritation Index (P.I.I.) (Draize, J. H., Appraisal of the safety of chemical in foods, drugs and cosmetics).

β3-adrenergic receptor = test: Expression of β3-adrenergic receptor by RT-PCR in 3T3-L1 fat cells; type: cell-based, rat; settings: 0.005%, 24 hours, FIG. 2
Experimental: (§1) 3T3-L1 cell, fibroblast cell line of […], was inoculated in 6 well culture plate with 1×10^5cells/well and cultured in DMEM (Dulbecos modified eagles medium, GIBCO BRL, Life Technologes) containing 10% of fetal bovine serum (FBS). After 2 days of culture, culture medium was changed with a new DMEM (containing 10% FBS), and cultured further 2 days. Then the culture cell was deposited in a new DMEM (containing 10% FBS) containing 1 μg/ml of insulin, 0.5 mM of IBMX and 0.25 μM of dexamethasone to induce differentiation, after 2 days, the culture medium was changed with a new DMEM containing insulin, and cultured for 5 days. After 5 days of culture, the culture medium was changed with a normal DMEM (containing 10% FBS), and observed until cells changed to fat cells (adipocytes).
In order to clarify the mechanism of acceleration of decomposition of neutral fat by the theanine, 3T3-L1 fat cells differentiated in the Reference Example 2 were used. The cells were treated with 0.005% of theanine purchased from KuridaKogyo (Japan) (more than 97%) and comparative materials (caffeine, control), and 24 hours later, RNAs were extracted from the cells and performed RT-PCR. The RT-PCR kit was purchased from TaKaRa, and primer of β3 -adrenergic receptor was purchased from Bioneer.

3T3-L1 fat cells [2] = test: Cell toxicity of theanine at high concentration; type: cell-based, mouse
3T3-L1 fat cells [3] = test: Decomposition of fat: glycerol isolated into culture medium from 3T3-L1 fat cells; type: cell-based, rat; settings: FIG. 1
Experimental: as §1
The degree of the decomposition of fat was observed by measuring the concentration of glycerol isolated into the culture medium from fat cell. Measurement of the quantity of the glycerol was performed with chromphoric reaction method using GPO-trinder kit purchased from Sigma (St. Louis, Mo., U.S.A.), and absorption was measured in 540 nm using ELISA reader, then the result of each component was calculated based on the data of the control settled to be 100%. […]

3T3-L1 cells = test: Accumulation of neutral fat in fat cells (GPO-trinder, absorption at 540 nm); type: cell-based, rat; settings: 3T3-L1 cells treated during cell differentiation; compared with control; FIG. 4
Experimental: as §1
3T3-L1 fat cells differentiated in the Reference Example 2 were washed with PBS (phosphate buffered saline) three times, and harvested with extraction buffer (20 mM of Tris, 1 mM of EDTA and 1 mM of 2-mercaptoethanol). The harvested cells passed G26 needle 6 times on an ice base, centrifuged at 15000×g, 4° C. for 3 minutes and the supernatant was gathered to obtain cell extracts. […]
Neutral fats in the cell extracts obtained same as Experimental Example 3 underwent chromphoric reaction using GPO-trinder kit purchased from Sigma (St. Louis, Mo., U.S.A.), and absorption was measured at 540 nm using ELISA reader.

[4] = New Zealand white, rabbit, in vivo, 4 days
[5] = New Zealand white rabbit, compared with control

SMILES	Primary Irritation Index (0˜4) [1, 4]	skin irritation ([1]; rabbit, in vivo)	skin irritation [1, 5]	Primary Irritation Index (0˜4) ([1]; 10% solution on rabbit skin, twice a day for 4 days, total 8 times)	expression of β3-adrenergic receptor (β3-adrenergic receptor)	cell toxicity (3T3-L1 fat cells [2])	concentration of glycerol isolated into the culture medium from fat cell (3T3-L1 fat cells [3]; compared with the control (100%))	effect of decomposition of fat compared with caffeine (positive comparative control) (3T3-L1 fat cells [3]; same concentration of caffeine)	amount of neutral fat (3T3-L1 cells)
C[N+](C)(C)C[C@H](O)CC(=O)[O-] [L-carnitine]	0.7	do not cause skin irritation	–	–	–	–	–	–	–
Cn1c(=O)c2c(ncn2C)n(C)c1=O [caffeine, reference compound]	0.7	–	do not cause skin irritation	–	–	–	–	–	–
O=c1c(-c2ccc(O)cc2)coc2cc(O)cc(O)c12 [genistein]	–	–	do not cause skin irritation	0.8	–	–	–	–	–
CCNC(=O)CC[C@H](N)C(=O)O [theanine]	0.8	do not cause skin irritation	–	–	increases	does not cause cell toxicity	increased	more excellent effect of decomposition of fat than that of caffeine	decreased
